Test results reported in patent US5756538A, “Flavonoid and biflavonoid derivatives, their pharmaceutical compositions, their anxiolytic activity” (University of Strathclyde, priority 1993, dated 1998).
Where two headings read alike, the source gives them in different places.

Columns and labels:
mice [1] = test: Elevated plus maze (anxiety); type: in vivo, mice (male CF1); settings: for Total arm entries: 5 min test, mean ± S.E.M.
Procedure: (a) Elevated Plus Maze: consisted of 4 perpendicularly disposed wood arms (20×5 cm; two had 35 cm high wood walls, and two were open) linked by a central 10×10 cm square. The maze was suspended 50 cm from the room floor. Animals were placed on the central part of the maze facing a closed arm. This test has been widely validated to measure anxiety in rodents. The number of entries into and the time spent in the open and closed arms were counted during 5 min. […] Total exploratory activity (number of entries in both arms) was also determined.
(§1) All the injections were given intraperitoneally (i.p.). […] Testing was carried out `blind`. All data were submitted to analysis of variance (ANOVA).

mice [2] = test: Holeboard test (exploratory activity, sedation); type: in vivo, mice (male CF1)
Procedure: (b) Holeboard Test: consisted of a wood box (60×60×30 cm) with four 2 cm diameter holes equidistant in the floor. The number of head-dips and the time spent head-dipping were counted during 5 min. An increase in the number and the time spent head-dipping implies a greater exploratory activity.
as §1

mice [3] = test: Locomotor activity test (OPTO-VARIMEX); settings: 0.6-1 mg/kg i.p., 20 min after injection
Procedure: Male CF1 mice from our breeding stock weighing 28-35 g were used. The animals were placed in groups of 10-12 with free access to water and food, and maintained on a 12 h/12 h day-night cycle.
Diazepam (DZ; Hoffman-La Roche) and the flavonoids were dissolved in DMSO 40%, NaOH 0.1N (7:3: v/v) at pH 8.2 Control animals were injected with the same vehicle (VEH). RO 15-1788 (Hoffmann-La Roche) was suspended in DMSO 10%, propyleneglycol 10% in distilled water.
(c) Locomotor Activity Test: we used an OPTO-VARIMEX apparatus consisting of a glass box (36×15×20 cm) and two lateral bars with 15 light beams (0.32 cm diameter, beam spacing 2.65 cm). The apparatus detects automatically all the mouse movements, and discriminates between total and ambulatory activity. The locomotor activity (number of movements across the beams) was counted during 5 min. An increase in the number of transitions through the beams reflects an augmented locomotor activity.
The general procedure for all the tests is as follows: mice were injected with vehicle or the drug solution 20 min before the beginning of the test and put into another home cage. Ro 15-1788, a specific BZD receptor antagonist was injected 10 min before the tested drug. All the injections were given intraperitoneally (i.p.). Control mice were tested in each session, in parallel with those animals receiving the test drug or diazepam. Testing was carried out `blind`. All data were submitted to analysis of variance (ANOVA). Post-hoc comparisons between individual treatments and controls were made using Dunnett's t-test.
FIGS. 15, 16, 17 and 18 show ambulatory locomoter activity counts during a 5 min. test session in an OPTO-Varimex apparatus, 20 min. after i.p. injection with a mixture of brominated flavones (0.6,1,3 mg/kg), FIG. 15; 2' chlorinated chrysin (1,3 mg/kg); FIG. 16; 2' fluorinated chrysin (3 mg/kg), FIG. 17; 6,8 dibromoflavone, FIG. 18. Data are expressed as medians (interquartile range) of (n) number of animals.

mice [4] = test: Horizontal wire test (muscle relaxation); type: in vivo, mice (male CF1)
Procedure: (d) Horizontal Wire Test: It consisted of an horizontally strung wire (1 mm diameter, 15 cm long), placed at 20 cm from the table. Mice were lifted by the tail, allowed to grasp the wire with their forepaws and released. […] After two trials, performed at 5 min. intervals, the test took place. A myorelaxant drug, like diazepam at high doses, will impair the ability of mice to grasp the wire. Generally, this state of muscle relaxation is commonly associated with sedation.
as §1
The test took place after two trials, executed after a 5 min interval.

benzodiazepine receptor = test: Competitive inhibition of 3H-flunitrazepam binding to benzodiazepine receptor (cerebral cortical membranes); parameters: species or system bovine
Procedure: (Competitive inhibition of H^3 -flunitrazepam to benzodiazepine receptor)
Binding of 3H-flunitrazepam (0.7 nM) to the benzodiazepine receptor was carried out in extensively washed cerebral cortical membranes.
H^3 -flunitrazepam has a Ki of […] to the benzodiazepine receptor.
IC50 values were obtained using flavonoids at different concentrations (10^-10 to 10^-3 M).
Structure - activity relationships of several flavonoids on
the ^3 H Flunitrazepam binding to bovine brain membranes.

[5] = system: locus coeruleus noradrenaline; test: Noradrenaline levels in locus coeruleus after immobilization stress; type: in vivo, rats; settings: 1 mg/kg i.p., 30 min before 90-min stress session
Procedure: Rats were submitted to a 90-minute immobilization stress session in a plastic cylinder. The locus coeruleus was dissected out after killing by decapitation and noradrenaline assessed by HPLC with electrochemical detection. Doses were 1 mg/kg for each substance, injected i.p., 30 minutes before the stress session.

benzodiazepine receptors = settings: Medina et al. 1990; cited from earlier work
[6] = Medina et al. 1990; cited from earlier work
[7] = 1 mg/kg i.p., 20 min after injection

O=c1cc(-c2ccccc2)oc2cc(O)cc(O)c12 [chrysin, 5,7-dihydroxyflavone]
Percentage of entries in the open arms (mice [1]; [7]): increase in both parameters (p<0.01) | Percentage of the time spent on the open arms (mice [1]; [7]): increase in both parameters (p<0.01) | Total arm entries (mice [1]; [7]): 9.9 ± 0.8 | Total arm entries (mice [1]; 3 mg/kg i.p., 20 min after injection): 8.7 ± 1.1 | Total arm entries (mice [1]; 10 mg/kg i.p., 20 min after injection): 10.2 ± 1.1 | Total arm entries, with and without RO 15-1788 (mice [1]; chrysin 1 mg/kg, RO 15-1788 3 mg/kg, F (2,49)=3.18): No significant differences were found | Anxiolytic effect in the elevated plus maze (mice [1]; i.p.): had anxiolytic effects | Total arm entries, difference from controls (mice [1]; i.p., doses of Table I): No differences were observed | Anxiolytic effect in the elevated plus maze (mice [1]; i.p., listed as CHRY): displayed an anxiolytic effect | Time spent head-dipping (mice [2]; 3 mg/kg i.p.): significant increase in the time spent head-dipping | Sedative effects (mice [2]; 10 mg/kg i.p.): did not elicit sedative effects | Sedation (summary) (mice [2]; i.p.): did not exhibit sedation | Locomotor activity (mice [3]): significant increase in locomotor activity | Effect in horizontal wire test / muscle relaxant effect (mice [4]; 0.6-30 mg/kg i.p.): ineffective in the same test and produced no muscle relaxant effect | Muscle relaxation (summary) (mice [4]; i.p.): did not exhibit sedation or muscle relaxation | Benzodiazepine ligand behaviour / affinity relative to 3H-flunitrazepam (benzodiazepine receptor): benzodiazepine ligand behaviour similar to that of ^3 H-flunitrazepam | IC50 (benzodiazepine receptor; 3H-flunitrazepam 0.7 nM, read-out: IC50 at the benzodiazepine receptor): 700 to 3000 nM | IC50 (benzodiazepine receptor; bovine brain membranes, 0.7 nM 3H-flunitrazepam, read-out: 3H Flunitrazepam binding IC50): 2000 nM | Noradrenaline decrease in locus coeruleus provoked by immobilization stress [5]: dampened the noradrenaline decrease | Potency vs diazepam on stress-provoked noradrenaline decrease [5]: almost equipotent with diazepam | Binding properties for benzodiazepine receptors (benzodiazepine receptors): binding properties for benzodiazepine receptors | Anticonvulsant properties [6]: anticonvulsant properties
